Like-named read-outs stand apart in the source and are kept apart here.
Experiments:
[1] = test system: HIF-1a; test: Western blot model: HIF1-a stabilization in Hep3b cells under hypoxia; assay type: cell-based; conditions: hypoxia 1% O2, 6 hours; for Western Blot (range of decrease of HIF1-a stabilization): class symbol
Procedure: Since it was sought to determine the efficacy of the compounds to inhibit HIF1a stabilization under hypoxia, the compounds according to the invention underwent biochemical studies in order to determine their capacity to decrease HIF stabilization in Hep3b cells under hypoxia (western blot model).
Hep3B cells are seeded at a rate of 300000 cells per well in 6-wells culture plate in 2 ml of MEM supplemented with glutamin (2 mM) and 10% FCS (foetal calf serum) and incubated at 37° C. in the presence of 5% CO2. The next day, the cells are placed in contact with the compound and an incubation under hypoxia at 1% O2 is carried out at 37° C. in 95% humidity and 5% CO2 in a sealed anaerobic workstation (Hypoxystation H35-Don Whitley—AES Chemunex) during 6 hours.
Cells were washed (PBS) and lysed in SDS sample buffer. Proteins (25 μg) were separated on 4-12% Bis-Tris gels and transferred onto polyvinylidene difluoride membranes (Millipore). Membranes were blotted with a mouse monoclonal antibody to HIF-1a (BD transduction) and a mouse monoclonal anti-βactin (Sigma). Immunoreactive bands were detected with a horse radish peroxydase (HRP) anti-mouse antibody (Sigma) by enhanced chemiluminescence (Promega).
The inhibitory activity of the compounds for their capacity to decrease HIF1-a stabilization in Hep3b under hypoxia is expressed as range of percentage relative to control with: […]

[2] = test system: mitochondrial ATP production on non-small cell lung carcinoma cell lines NCI-H460; test: Mitochondrial ATP analysis (Cell Titer Glo) in NCI-H460 cells; assay type: cell-based; conditions: 1-hour incubation, with sodium iodoacetate (100 μM), concentration inhibiting 50% of mitochondrial ATP production, read-out: IC50 (mito ATP)
Procedure: In order to evaluate the inhibitory activity of the all compounds, an in vitro assay was developed which read out is directly linked to mitochondrial complex 1 inhibition. Since mitochondrial complex 1 contributes to the formation of membrane potential coupled to the mitochondrial ATP synthesis, complex 1 inhibition directly leads in cells to the inhibition of mitochondrial ATP production. Cellular ATP contents were measured in presence of either glycolysis inhibitor (sodium iodocetate) and/or mitochondrial inhibitors (F0F1-ATPase inhibitor: oligomycin or mitochondrial uncoupler: FCCP) to determine the ATP production part relying either on glycolytic or on mitochondrial metabolism.
Mitochondrial ATP Analysis
The compounds of the invention were evaluated for their ability to inhibit mitochondrial
ATP was measured using the Promega Cell Titer Glo kit and protocol. In summary, 1,000 cells were plated in 40 μL in a 384 well plate. 24 hours later, medium was replaced by 20 μl culture medium in presence of compounds: cells were treated in replicates of five with control (PBS), oligomycin A (10 μg/ml), FCCP (30 μM), or the compounds of the invention in dose effect both alone or in combination with sodium iodoacetate (100 μM). Following a 1-hour incubation, 20 μL of CellTtiter-glo™ reaction mix were added to each well for a final volume of 40 μL. Plates were then analyzed for luminescence with a Perkin Elmer EnVision. By comparing the different conditions, global ATP and percentages of both glycolytic and mitochondrial ATP were determined.
The mitochondrial ATP production was calculated as the remaining ATP under iodoacetate treatment minus basal ATP (ATP content under iodoacetate and oligomycin treatment). Inhibitory activity of the compounds on mitochondrial ATP in NCI-H460 cells is expressed as the concentration needed to inhibit 50% of mitochondrial ATP production (IC50, M).

Row | Compound | IC50 [2] [nM] | IC50 ([2]; Homo sapiens, NCI-H460, 1 h) [nM] | Western Blot (decrease of HIF1-a stabilization, percentage relative to control) [1] [%] | Western Blot (range of decrease of HIF1-a stabilization) [1]
1 | COc1ccc(C(O)C(C)(C)Oc2ccc(-c3nc(-c4ccc(OC(C)(C)C(O)c5ccc(OC)c(OC)c5)cc4)c(C)s3)cc2)cc1OC (single isomer, unassigned) [Compound I-8, 1-(3,4-dimethoxyphenyl)-2-[4-[2-[4-[2-(3,4-dimethoxyphenyl)-2-hydroxy-1,1-dimethyl-ethoxy]phenyl]-5-methyl-thiazol-4-yl]phenoxy]-2-methyl-propan-1-ol] | 2.06 | – | 47 | * (* represents a decrease of HIF-a stabilization between 30 to 50%)
2 | COc1ccc(C(O)COc2ccc(-c3nc(-c4ccc(OCC(O)c5ccc(OC)c(OC)c5)cc4)c(C)s3)cc2)cc1OC (stereo not drawn) [Compound I-7, 1-(3,4-dimethoxyphenyl)-2-[4-[2-[4-[2-(3,4-dimethoxyphenyl)-2-hydroxy-ethoxy]phenyl]-5-methyl-thiazol-4-yl]phenoxy]ethanol] | – | 284 | 63 | ** (** represents a decrease of HIF-a stabilization between 50 to 70%)
3 | COc1ccc(C(O)COc2ccc(-c3csc(-c4ccc(OCC(O)c5ccc(OC)c(OC)c5)cc4)n3)cc2)cc1OC (single isomer, unassigned) [Compound I-25, 1-(3,4-dimethoxyphenyl)-2-[4-[2-[4-[2-(3,4-dimethoxyphenyl)-2-hydroxy-ethoxy]phenyl]thiazol-4-yl]phenoxy]ethanol] | 195 | – | 41 | * (* represents a decrease of HIF-a stabilization between 30 to 50%)
4 | COc1ccc(C(O)COc2ccc(-c3nc(-c4ccc(OCC(O)c5ccc(OC)c(OC)c5)cc4)c(C)s3)cc2)cc1OC (single isomer, unassigned) [Compound I-10, 1-(3,4-dimethoxyphenyl)-2-[4-[2-[4-[2-(3,4-dimethoxyphenyl)-2-hydroxy-ethoxy]phenyl]-5-methyl-thiazol-4-yl]phenoxy]ethanol] | 146 | – | 62 | ** (** represents a decrease of HIF-a stabilization between 50 to 70%)
5 | COc1ccc(C(O)C(C)Oc2ccc(-c3csc(-c4ccc(OC(C)C(O)c5ccc(OC)c(OC)c5)cc4)n3)cc2)cc1OC (single isomer, unassigned) [Compound I-29, 1-(3,4-dimethoxyphenyl)-2-[4-[2-[4-[2-(3,4-dimethoxyphenyl)-2-hydroxy-1-methyl-ethoxy]phenyl]thiazol-4-yl]phenoxy]propan-1-ol] | 159 | – | 67 | ** (** represents a decrease of HIF-a stabilization between 50 to 70%)
6 | COc1ccc(C(O)C(C)Oc2ccc(-c3csc(-c4ccc(OC(C)C(O)c5ccc(OC)c(OC)c5)cc4)n3)cc2)cc1OC (single isomer, unassigned) [Compound I-30, 1-(3,4-dimethoxyphenyl)-2-[4-[2-[4-[2-(3,4-dimethoxyphenyl)-2-hydroxy-1-methyl-ethoxy]phenyl]thiazol-4-yl]phenoxy]propan-1-ol] | 167 | – | 56 | ** (** represents a decrease of HIF-a stabilization between 50 to 70%)

The next lines start with results.

Row | IC50 [2] [nM] | IC50 ([2]; Homo sapiens, NCI-H460, 1 h) [nM] | Compound | Western Blot (decrease of HIF1-a stabilization, percentage relative to control) [1] [%] | Western Blot (range of decrease of HIF1-a stabilization) [1]
7 | 30.1 | – | COc1ccc(C(O)C(C)Oc2ccc(-c3csc(-c4ccc(OC(C)C(O)c5ccc(OC)c(OC)c5)cc4)n3)cc2)cc1OC (single isomer, unassigned) [Compound I-33, 1-(3,4-dimethoxyphenyl)-2-[4-[2-[4-[2-(3,4-dimethoxyphenyl)-2-hydroxy-1-methyl-ethoxy]phenyl]thiazol-4-yl]phenoxy]propan-1-ol] | 52 | * (* represents a decrease of HIF-a stabilization between 30 to 50%)
8 | – | 23.8 | COc1ccc(C(O)COc2ccc(-c3csc(-c4ccc(OC(C)(C)C(O)c5ccc(OC)c(OC)c5)cc4)n3)cc2)cc1OC (single isomer, unassigned) [Compound I-65, 1-(3,4-dimethoxyphenyl)-2-[4-[4-[4-[2-(3,4-dimethoxyphenyl)-2-hydroxy-ethoxy]phenyl]thiazol-2-yl]phenoxy]-2-methyl-propan-1-ol] | 41 | * (* represents a decrease of HIF-a stabilization between 30 to 50%)
9 | – | 6 | COc1ccc(C(O)C(C)(C)Oc2ccc(-c3csc(-c4ccc(OC(C)(C)C(O)c5ccc(OC)c(OC)c5)cc4)c3)cc2)cc1OC (stereo not drawn) [Compound I-34, 1-(3,4-dimethoxyphenyl)-2-[4-[5-[4-[2-(3,4-dimethoxyphenyl)-2-hydroxy-1,1-dimethyl-ethoxy]phenyl]-3-thienyl]phenoxy]-2-methyl-propan-1-ol] | 64 | ** (** represents a decrease of HIF-a stabilization between 50 to 70%)
10 | – | 30 | COc1ccc(C(O)C(C)(C)Oc2ccc(-c3nsc(-c4ccc(OC(C)(C)C(O)c5ccc(OC)c(OC)c5)cc4)n3)cc2)cc1OC (stereo not drawn) [Compound I-42, 1-(3,4-dimethoxyphenyl)-2-[4-[5-[4-[2-(3,4-dimethoxyphenyl)-2-hydroxy-1,1-dimethyl-ethoxy]phenyl]-1,2,4-thiadiazol-3-yl]phenoxy]-2-methyl-propan-1-ol] | 56 | ** (** represents a decrease of HIF-a stabilization between 50 to 70%)
11 | 47.6 | – | COc1ccc(C(O)C(C)Oc2ccc(-c3csc(-c4ccc(OC(C)C(O)c5ccc(OC)c(OC)c5)cc4)n3)cc2)cc1OC (single isomer, unassigned) [Compound I-32, 1-(3,4-dimethoxyphenyl)-2-[4-[2-[4-[2-(3,4-dimethoxyphenyl)-2-hydroxy-1-methyl-ethoxy]phenyl]thiazol-4-yl]phenoxy]propan-1-ol] | 45 | * (* represents a decrease of HIF-a stabilization between 30 to 50%)
12 | 492 | – | COc1ccc(C(O)COc2ccc(-c3csc(-c4ccc(OCC(O)c5ccc(OC)c(OC)c5)cc4)n3)cc2)cc1OC (single isomer, unassigned) [Compound I-62, 1-(3,4-dimethoxyphenyl)-2-[4-[2-[4-[2-(3,4-dimethoxyphenyl)-2-hydroxy-ethoxy]phenyl]thiazol-4-yl]phenoxy]ethanol] | 43 | * (* represents a decrease of HIF-a stabilization between 30 to 50%)
13 | – | 92.5 | COc1ccc(C(O)C(C)Oc2ccc(-c3nsc(-c4ccc(OC(C)C(O)c5ccc(OC)c(OC)c5)cc4)n3)cc2)cc1OC (stereo not drawn) [Compound I-39, 1-(3,4-dimethoxyphenyl)-2-[4-[5-[4-[2-(3,4-dimethoxyphenyl)-2-hydroxy-1-methyl-ethoxy]phenyl]-1,2,4-thiadiazol-3-yl]phenoxy]propan-1-ol] | 51 | ** (** represents a decrease of HIF-a stabilization between 50 to 70%)
14 | 760 | – | COc1ccc(C(O)C(C)(C)Oc2ccc(-c3c[nH]c(-c4ccc(OC(C)(C)C(O)c5ccc(OC)c(OC)c5)cc4)n3)cc2)cc1OC (single isomer, unassigned) [Compound I-56, 1-(3,4-dimethoxyphenyl)-2-[4-[2-[4-[2-(3,4-dimethoxyphenyl)-2-hydroxy-1,1-dimethyl-ethoxy]phenyl]-1H-imidazol-4-yl]phenoxy]-2-methyl-propan-1-ol] | 75 | *** (*** represents a decrease of HIF-a stabilization higher than 70%)

— patent US20170313674A1, “BENZYLHYDROXIDE DERIVATIVES, PREPARATION THEREOF AND THERAPEUTIC USE THEREOF” (SANOFI, priority 2014, published 2017)
